Measurements published in patent US10441599B2, “Pharmaceutical composition containing Ginkgolide B and blood platelet prostaglandin cyclooxygenase inhibitor and method for preparation thereof and use thereof” (priority 2014, dated 2019).

How the values were obtained:
Type in all cases: in vivo, Japanese large-ear white rabbits
[1] = test system: platelets (morphology types after PAF); assay: Scanning electron microscopy study of platelet morphology after addition of PAF; settings: for Types of morphology (%): Aggregated / Types of morphology (%): Circle / Types of morphology (%): Flat / Types of morphology (%): Tree like: rabbits 5.0 mg/kg once daily 7 days, PRP + PAF, SEM, 100 platelets, x ± s, n = 8; for Aggregated type platelets under scanning electron microscope: under induction of PAF, 2000-fold SEM
Experimental: 128 Japanese large-ear white rabbits with a weight of (2.0±0.2) kg, half male and half female, were provided by Chongqing Medical University Experimental Animal Center [animal certification number: XCXK (Yu) 20020001]. 128 Japanese large-ear white rabbits were randomly assigned to 16 groups, with 8 rabbits in each group: […] All groups were administered with a clinically used route and dosage for 7 days continuously. […] The types of platelet under the electron microscope includes: […] (3) Flat type has a dense core in the center and a wide transparent peripheral zone which has a smooth periphery or small bulges. (4) Aggregated-type is usually composed of several to dozens of platelets, with different sizes of the aggregates, wherein the platelets are mutually connected, some of the platelets are integrally fused into a whole, and the foot processes of the peripheral part are prominent.

[2] = test system: rabbit β-thromboglobulin (β-TG); assay: Determination of β-TG level in serum (ELISA) after PAF induction; settings: for level of β-TG compared with the saline group: p<0.01, p<0.05; for β-TG level: rabbits 5.0 mg/kg once daily 7 days, serum after PAF induction, x ± s, n = 8
Description: (§1) 128 Japanese large-ear white rabbits with a weight of (2.0±0.2) kg, half male and half female, were provided by Chongqing Medical University Experimental Animal Center [animal certification number: XCXK (Yu) 20020001]. […] ELISA kit (FOCUS, lot number: 20130301). TYXN-96 multifunctional intelligent aggregometer (Shanghai General Technique Research Institute); Scanning electron microscope […]-800 Absorbance Reader (BioTek Instruments, Inc.). 128 Japanese large-ear white rabbits were randomly assigned to 16 groups, with 8 rabbits in each group: […] All groups were administered with a clinically used route and dosage for 7 days continuously. […] The plasma was rested at 4° C. for 4 hours, and 200 μL of serum was taken for detection. The specific operation is carried out according to the kit specification, and the result was read by the Absorbance Reader.

[3] = test system: rabbit platelet aggregation induced by PAF; assay: Platelet aggregation rate induced by PAF in platelet-rich plasma of dosed rabbits; settings: for Platelet aggregation inhibition rate (%) / platelet aggregation rate, 1 min / platelet aggregation rate, 5 min / maximum platelet aggregation rate (MAX): rabbits 5.0 mg/kg once daily 7 days; for Platelet aggregation inhibition rate (%) / maximum platelet aggregation rate (MAX): PAF-induced; for Platelet aggregation inhibition rate (%): relative to saline group; for platelet aggregation rate, 1 min / platelet aggregation rate, 5 min / maximum platelet aggregation rate (MAX): PRP, x ± s, n = 8; for platelet aggregation rate, 1 min: 1 min after addition of 10 μL PAF; for platelet aggregation rate, 5 min: 5 min after addition of 10 μL PAF; for maximum platelet aggregation rate comparing with the saline group: under the induction of PAF, p<0.01, p<<0.05
Experimental: 128 Japanese large-ear white rabbits with a weight of (2.0±0.2) kg, half male and half female, were provided by Chongqing Medical University Experimental Animal Center [animal certification number: XCXK (Yu) 20020001].
Platelet activation factors (PAF) (cayman, lot number: 011219) was dissolved in the Tris-NaCl solution containing 0.25% of calf serum albumin at a pH of 7.6, to a final concentration of 3.6 nmoL/L; sodium citrate (Beijing Zhongshanjinqiao Biotechnology Company, lot number: 20130117) dissolved in the distilled water with 3.8% concentration; rabbit β-thromboglobulin (β-TG) ELISA kit (FOCUS, lot number: 20130224), rabbit platelet factor 4 (PF-4) (lot number: ELISA kit (FOCUS, lot number: 20130301). TYXN-96 multifunctional intelligent aggregometer (Shanghai General Technique Research Institute); Scanning electron microscope S-3000 N (Hitachi Limited); ELX-800 Absorbance Reader (BioTek Instruments, Inc.).
128 Japanese large-ear white rabbits were randomly assigned to 16 groups, with 8 rabbits in each group: (1) Saline group, (2) Ginkgolide B group, (3) Aspirin group, (4) Jinnaduo group, (5) Composition 1 group, (6) Composition 2 group, (7) Composition 3 group, (8) Composition 4 group, (9) Composition 5 group, (10) Composition 6 group, (11) Composition 7 group, (12) Composition 8 group, (13) Composition 9 group, (14) Composition 10 group, (15) Composition 11 group, (16) Composition 12 group. All groups were administered with a clinically used route and dosage for 7 days continuously.
After 7 days of administration, 10.5 ml of blood was taken from the heart of each animal, wherein 1.5 ml of plasma was used for taking serum and the rest 9 ml of plasma was subjected to 3.8% sodium citrate at 1:9 for anticoagulation, centrifuging for 10 minutes at 800 r/min, and taking the supernatant to obtain platelet-rich plasma (PRP).), wherein 100 μl of the PRP was taken for electron microscope examination, and the rest of the PRP was used for detecting of the platelet aggregation rate; the remaining portion was centrifuged for 15 min at a speed of 3000 r/min, and platelet-depleted plasma (PPP) was obtained. PPP was used to adjust the number of platelet in PRP, to be at 360×10^9/L. The platelet aggregation rate and maximum platelet aggregation rate was studied and recorded after 1 min, 5 min of addition of 10 μL of PAF.
The statistical analysis is carried out using SPSS 18.0 software, and the platelet aggregation rates, the percentage of types of platelet morphology and the concentration of PF-4 and β-TG were analyzed using two-sample t-test. P-values<0.05 were considered statistically significant.

[4] = test system: rabbit platelet factor 4 (PF-4); assay: Determination of PF-4 level in serum (ELISA) after PAF induction; settings: for PF-4 level: rabbits 5.0 mg/kg once daily 7 days, serum after PAF induction, x ± s, n = 8
Description: as §1

Structure (SMILES) | Types of morphology (%): Aggregated [1] | Types of morphology (%): Circle [1] | Types of morphology (%): Flat [1] | Types of morphology (%): Tree like [1] | Aggregated type platelets under scanning electron microscope [1] | level of β-TG compared with the saline group [2] | β-TG level [2] | Platelet aggregation inhibition rate (%) [3] | platelet aggregation rate, 1 min [3] | platelet aggregation rate, 5 min [3] | maximum platelet aggregation rate (MAX) [3] | maximum platelet aggregation rate comparing with the saline group [3] | level of PF-4 compared with the saline group ([4]; p<0.01, p<0.05) | PF-4 level [4]
CC1C(=O)OC2C(O)C34C5CC(C(C)(C)C)C36C(OC(=O)C6O)OC4(C(=O)O5)C12O (stereo not drawn) [Ginkgolide B] | 22.3 ± 9.6 % | 31.6 ± 6.4 % | 46.1 ± 8.3 % | 15.8 ± 6.8 % | rarely seen | decreased significantly | 1.247 ± 0.184 µg/mL | 44.66% | 21.36 ± 4.15 | 33.54 ± 5.48 | 38.86 ± 4.74 | significant difference | decreased significantly | 1.264 ± 0.215 µg/mL
CC(=O)Oc1ccccc1C(=O)O [Aspirin, acetylsalicylic acid] | 54.0 ± 14.3 % | 5.8 ± 2.6% | 25.5 ± 8.4 % | 14.7 ± 7.0 % | increased number of Aggregated type platelets | didn't decrease significantly | 1.504 ± 0.244 µg/mL | 31.53% | 25.28 ± 5.06 | 36.89 ± 5.53 | 48.08 ± 5.87 | significant difference | – | 1.489 ± 0.228 µg/mL
